# In patent publication US6235493A, “Amino acid substituted-cresyl violet, synthetic fluorogenic substrates for the analysis of agents in individual in vivo cells or tissue” (priority 1998, dated 2001):
# Starred links: 1 amine or outer side, 2 acyl side, 3 side chain; linkers in the order of their positions; H or OH if unused. Non-standard residues stand in square brackets, D forms with d. Residues, ends and D or L forms follow the SMILES beside them. *: point of attachment. hPhe = N[C@@H](CCc1ccccc1)C(=O)O; Morpholide = C1CN(*)CCO1; CO = O=C([*:1])[*:2]; CH2F = FC*
# Tests used:
# [1] = cited from earlier work
# CC531 colon cancer cells = assay: Colon cancer (CC531) metastasis in rat liver: number and volume of tumors per lobe; format: in vivo
# Description: Induction of Metastasis in Rat Liver
# Colon carcinoma tumors were induced in rat liver by injection of a single cell suspension containing 1×10^6 CC531 cells into the portal vein of 32 mature male WAG-Rij rats, weighing 180-200 g (Broekman, Someren, The Netherlands) as described previously in detail (46,51,52).
# Treatment of Rats with FMK
# (§1) Sixteen rats were treated orally with 20 mg FMK per kg body weight dissolved in PBS and 5% dimethylformamide daily for 14 days starting one week before administration of the CC531 cells and continuing until sacrifice. Oral administration was performed directly into the stomach with a plastic tube attached to a syringe. Dosage and type of treatment were selected on the basis of previous experiments in which rats were treated with FMK-related inhibitors of cathepsins (34,40,53). The other 16 animals were treated similarly with PBS and dimethylformamide only. The LD50 of this type of FMK is at least 20-fold higher than the dosages used in the present experiment (40,53).
# Preparation of Cryostat Sections of Liver
# Seven days after administration of CC531 cells, the animals were weighed and sacrificed with an overdose of sodium pentobarbital. Livers were removed immediately, the individual lobes were weighed and dissected and cut into small pieces (up to 5 mm thick) according to a rigid dissection scheme. The left lateral lobe was cut into eight pieces, the median lobe into nine pieces, the right lateral and caudate lobes into four pieces. Tissue fragments were frozen in liquid nitrogen and the material was kept at -80° C. until further use. Twenty-one sites were randomly selected in all lobes of each liver before the experiments were carried out. From these sites, sections (8 μm thick) were cut on a motor-drivencryostat with a rotary retracting microtome (Bright, Huntingdon, UK) at a constant but low speed and a cabinet temperature of -25° C. Sections were picked up onto clean glass slides and stored in the cryostat cabinet until used. These methods have been described in detail in Reference 54.
# Staining of Tissue Sections
# To facilitate recognition of cancer cells, cryostat sections were stained either with the periodic acid Schiff (PAS) reaction (54) or immunohistochemically using the lectin Ulex europaeus agglutinin I (Dako, Glostrup, Denmark), a selective marker of CC531 cells in rat (51,55). Immunocompetenet cells, endothelial cells and components of the extracellular matrix were localized with a panel of antibodies (Table 1) as described in detail by Griffini et al. (52). Control incubations were performed by replacing the first antibodies by non-immune sera in the same dilutions.
# For calculation of the number and percentage volume of tumors in each liver lobe, the 8 micron thick sections were analyzed morphometrically using a Quantimet Q500 (Leica, Cambridge, UK) after staining with the lectin Ulex for the detection of cancer cells. The number of tumors was expressed per unit volume of liver tissue ±standard error of the mean or as ratio of the number of tumors in FMK-treated rats and those in untreated rats (×100). The percentage volume of tumors was expressed as the ratio of the volume of tumors and the total volume of the liver tissue including tumors ±standard error of the mean. Statistical analysis was performed with the 2-tailed Mann-Whitney test using the software program JPM (SAS Institute, Cary, N.C.).
# The number of tumors is expressed per unit volume of liver tissue ± SEM or as the ratio of the number of tumors in treated rats compared with untreated rats (×100; %) as determined morphometrically in 8 μm thick cryostat sections stained with the lectin Ulex europaeus agglutinin I. Differences in number of tumors in left lateral and median lobes but not in right lateral and caudate lobes between treated and untreated animals were significant (P=0.006 and P=0.1, respectively). […]
# [2] = cited from earlier work; remark: listed apart in the source
# [3] = Body weight and liver weight of FMK-treated rats; format: in vivo, rat; settings: 20 mg FMK/kg daily oral 14 days
# Description: as §1
# Seven days after administration of CC531 cells, the animals were weighed and sacrificed with an overdose of sodium pentobarbital. Livers were removed immediately, the individual lobes were weighed and dissected and cut into small pieces (up to 5 mm thick) according to a rigid dissection scheme. The left lateral lobe was cut into eight pieces, the median lobe into nine pieces, the right lateral and caudate lobes into four pieces. […]
# Significant differences between the caudate lobe and the other liver lobes with respect to the endothelial compartment or distribution patterns of extracellular matrix compounds (see Table 1 for specification of parameters investigated) could not be detected either.
# [4] = 20 mg FMK/kg daily oral 14 days
# [5] = +FMK, 20 mg/kg daily oral 14 days, ± SEM, n = 16
# [6] = weighted by relative lobe wet weight
compound,measurement,setting,value
"O=C(CF)[C@H](CCc1ccccc1)NC(=O)[C@H](Cc1ccccc1)NC(=O)N1CCOCC1 [FMK, Mu-Phe-homoPhe-fluoro-methylketone] ({Morpholide-CO}-Phe-[hPhe]-CH2F)",toxicity,[1],non-toxic
same,LD50 relative to the dosages used (20 mg/kg),[1]; this type of FMK,at least 20 fold
same,"ratio of number of tumors in treated vs untreated rats (×100), caudate lobe",CC531 colon cancer cells; [4],278%
same,"ratio of number of tumors in treated vs untreated rats (×100), left lateral lobe",CC531 colon cancer cells; [4],24%
same,"ratio of number of tumors in treated vs untreated rats (×100), median lobe",CC531 colon cancer cells; [4],24%
same,"ratio of number of tumors in treated vs untreated rats (×100), right lateral lobe",CC531 colon cancer cells; [4],91%
same,"ratio of percentage volumes in treated and untreated rats (×100), caudate lobe",CC531 colon cancer cells; [4],283%
same,"ratio of percentage volumes in treated and untreated rats (×100), left lateral lobe",CC531 colon cancer cells; [4],17%
same,"ratio of percentage volumes in treated and untreated rats (×100), median lobe",CC531 colon cancer cells; [4],3%
same,"ratio of percentage volumes in treated and untreated rats (×100), right lateral lobe",CC531 colon cancer cells; [4],35%
same,"average size of tumors in large lobes, treated relative to untreated",CC531 colon cancer cells; 20 mg FMK/kg per day,40%
same,effect on number of tumors in the caudate lobe,CC531 colon cancer cells; 20 mg FMK/kg per day,"increased rather than decreased, although the difference was not significant"
same,effect on size of tumors in the caudate lobe,CC531 colon cancer cells; 20 mg FMK/kg per day,not affected
same,number of tumors per unit volume in caudate lobe vs other lobes in treated rats,CC531 colon cancer cells; 20 mg FMK/kg per day,20 fold
same,reduction of total volume of tumors in the large lobes (average),CC531 colon cancer cells; 20 mg FMK/kg per day,80%
same,reduction of number of tumors in the large lobes (average),"CC531 colon cancer cells; 20 mg FMK/kg per day, one week before until one week after cells",60%
same,"number of tumors, caudate lobe",CC531 colon cancer cells; [5],14.2 ± 7.5 per unit volume of liver tissu
same,"number of tumors, left lateral lobe",CC531 colon cancer cells; [5],0.5 ± 0.2 per unit volume of liver tissu
same,"number of tumors, median lobe",CC531 colon cancer cells; [5],0.4 ± 0.2 per unit volume of liver tissu
same,"number of tumors, right lateral lobe",CC531 colon cancer cells; [5],1.0 ± 0.4 per unit volume of liver tissu
same,"percentage volume of tumors, caudate lobe",CC531 colon cancer cells; [5],49.8 ± 38.5%
same,"percentage volume of tumors, left lateral lobe",CC531 colon cancer cells; [5],1.4 ± 0.5%
same,"percentage volume of tumors, median lobe",CC531 colon cancer cells; [5],0.3 ± 0.6%
same,"percentage volume of tumors, right lateral lobe",CC531 colon cancer cells; [5],1.1 ± 0.2%
same,"effect on number or size of metastases, caudate lobe",CC531 colon cancer cells; in vivo treatment with FMK,does not reduce number or size of metastases
same,reduction of mean number of tumors in the entire liver,CC531 colon cancer cells; [6],35%
same,reduction of mean volume of tumors in the entire liver,CC531 colon cancer cells; [6],57%
same,water solubility,[2],water-soluble
same,"effect on body weight, total liver weight or weight of individual lobes",[3],"did not affect body weight, total liver weight or the weight of the individual lobes"
